# Reference: PubChem BioAssay (NCI)
#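 Briefly, cells in 96-well plates were exposed to five compound concentrations for 48 h, and endpoints were estimated by linear interpolation. GI50 is the concentration that inhibits growth by half. Definition used: TGI = concentration required for complete inhibition of growth.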
# Experiments:
# Experiment in all cases: NCI-60 cell line screen, 48 h
# [1] = tested on: NCI-H23 lung
# [2] = tested on: NCI-H460 lung
# [3] = tested on: NCI-H522 lung
# [4] = tested on: NCI/ADR-RES ovarian
# [5] = tested on: OVCAR-3 ovarian
# [6] = tested on: OVCAR-4 ovarian
# [7] = tested on: OVCAR-5 ovarian
# [8] = tested on: OVCAR-8 ovarian
# [9] = tested on: PC-3 prostate
# [10] = tested on: RPMI-8226 leukemia
# [11] = tested on: RXF 393 renal
# [12] = tested on: SF-268 CNS
# [13] = tested on: SF-295 CNS
# [14] = tested on: SF-539 CNS
# [15] = tested on: SK-MEL-2 melanoma
# [16] = tested on: SK-MEL-28 melanoma
# [17] = tested on: SK-MEL-5 melanoma
# [18] = tested on: SK-OV-3 ovarian
# [19] = tested on: SN12C renal
# [20] = tested on: SNB-19 CNS
# [21] = tested on: SNB-75 CNS
# [22] = tested on: SR leukemia
# [23] = tested on: SW-620 colon
# [24] = tested on: T-47D breast
# [25] = tested on: TK-10 renal
# [26] = tested on: U251 CNS
# [27] = tested on: UACC-257 melanoma
# [28] = tested on: UACC-62 melanoma
# [29] = tested on: UO-31 renal
smiles,measurement,setting,value
COc1cc(OC)cc(C(=O)Nc2cccc(C#Cc3cccc4[nH]nc(N)c34)c2)c1,GI50,[1],2140 nM
same,TGI,[1],11700 nM
same,GI50,[2],586 nM
same,TGI,[2],10800 nM
same,GI50,[3],485 nM
same,TGI,[3],2700 nM
same,GI50,[4],1660 nM
same,TGI,[4],8540 nM
same,GI50,[5],943 nM
same,TGI,[5],11800 nM
same,GI50,[6],3510 nM
same,TGI,[6],23600 nM
same,GI50,[7],2970 nM
same,TGI,[7],45500 nM
same,GI50,[8],2360 nM
same,TGI,[8],13700 nM
same,GI50,[9],2050 nM
same,TGI,[9],> 41200 nM
same,GI50,[10],1770 nM
same,TGI,[10],17800 nM
same,GI50,[11],584 nM
same,TGI,[11],3030 nM
same,GI50,[12],2060 nM
same,TGI,[12],11000 nM
same,GI50,[13],1130 nM
same,TGI,[13],5170 nM
same,GI50,[14],621 nM
same,TGI,[14],2190 nM
same,GI50,[15],428 nM
same,TGI,[15],1960 nM
same,GI50,[16],1760 nM
same,TGI,[16],15700 nM
same,GI50,[17],1010 nM
same,TGI,[17],3290 nM
same,GI50,[18],3680 nM
same,TGI,[18],22600 nM
same,GI50,[19],2700 nM
same,TGI,[19],13900 nM
same,GI50,[20],2460 nM
same,TGI,[20],30900 nM
same,GI50,[21],306 nM
same,TGI,[21],2710 nM
same,GI50,[22],133 nM
same,TGI,[22],5480 nM
same,GI50,[23],689 nM
same,TGI,[23],> 35000 nM
same,GI50,[24],1210 nM
same,TGI,[24],13800 nM
same,GI50,[25],4290 nM
same,TGI,[25],12400 nM
same,GI50,[26],821 nM
same,TGI,[26],15000 nM
same,GI50,[27],2040 nM
same,TGI,[27],11800 nM
same,GI50,[28],478 nM
same,TGI,[28],6490 nM
same,GI50,[29],2990 nM
same,TGI,[29],12100 nM
